Experimental data published in paper PMC5564600 (Oncotarget, 2017).

Legend:
Assay in all cases: biochemical
Assay type in all cases: binding
panel of 442 kinases [1] = biological target: T1, panel of 442 kinases (Homo sapiens, UniProt O14920); settings: kinase IKK-beta; for remaining activity at 1 µM: read-out: % of control at 1 µM
T1 construct: purchased Ambit Biosciences (scanMAXX KINOMEscan)
T1 sequence (O14920 1-756): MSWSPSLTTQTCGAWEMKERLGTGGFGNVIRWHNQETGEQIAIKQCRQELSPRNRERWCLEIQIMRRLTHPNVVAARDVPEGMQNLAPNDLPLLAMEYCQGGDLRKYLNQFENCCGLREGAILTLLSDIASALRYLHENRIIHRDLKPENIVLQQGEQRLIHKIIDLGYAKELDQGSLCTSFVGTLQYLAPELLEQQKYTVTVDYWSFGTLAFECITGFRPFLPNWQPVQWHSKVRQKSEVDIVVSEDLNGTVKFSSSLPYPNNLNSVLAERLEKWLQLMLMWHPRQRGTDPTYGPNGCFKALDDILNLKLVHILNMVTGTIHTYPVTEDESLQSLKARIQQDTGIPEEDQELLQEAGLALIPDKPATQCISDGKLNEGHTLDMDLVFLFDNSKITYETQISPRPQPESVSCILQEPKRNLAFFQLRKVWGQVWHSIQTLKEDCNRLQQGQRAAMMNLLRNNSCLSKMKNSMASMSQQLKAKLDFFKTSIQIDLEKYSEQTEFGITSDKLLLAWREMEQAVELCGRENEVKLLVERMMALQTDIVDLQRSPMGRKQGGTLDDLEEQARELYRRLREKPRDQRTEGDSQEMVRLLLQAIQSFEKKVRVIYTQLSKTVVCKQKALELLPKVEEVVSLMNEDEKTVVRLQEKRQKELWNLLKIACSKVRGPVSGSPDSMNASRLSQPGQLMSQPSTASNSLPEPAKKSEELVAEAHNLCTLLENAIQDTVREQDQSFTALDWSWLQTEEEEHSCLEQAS

panel of 442 kinases [2] = biological target: T2, panel of 442 kinases (Homo sapiens, UniProt Q9HC98); settings: kinase NEK6; for remaining activity at 1 µM: read-out: % of control at 1 µM
T2 construct: purchased Ambit Biosciences (scanMAXX KINOMEscan)
T2 sequence (Q9HC98 whole entry): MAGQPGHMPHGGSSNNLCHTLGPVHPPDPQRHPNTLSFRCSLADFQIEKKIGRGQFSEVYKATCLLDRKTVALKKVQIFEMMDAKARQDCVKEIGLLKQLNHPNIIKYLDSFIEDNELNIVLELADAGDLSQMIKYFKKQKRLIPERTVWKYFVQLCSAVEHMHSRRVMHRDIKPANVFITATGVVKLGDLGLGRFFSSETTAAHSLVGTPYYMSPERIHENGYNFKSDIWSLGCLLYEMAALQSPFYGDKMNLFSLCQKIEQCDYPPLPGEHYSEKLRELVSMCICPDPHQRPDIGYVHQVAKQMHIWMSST

panel of 442 kinases [3] = biological target: T3, panel of 442 kinases (Homo sapiens, UniProt Q9BVS4); settings: kinase RIOK2; for remaining activity at 1 µM: read-out: RIOK2 (% of control at 1 µM)
T3 construct: purchased Ambit Biosciences (scanMAXX KINOMEscan)
T3 sequence (Q9BVS4 whole entry): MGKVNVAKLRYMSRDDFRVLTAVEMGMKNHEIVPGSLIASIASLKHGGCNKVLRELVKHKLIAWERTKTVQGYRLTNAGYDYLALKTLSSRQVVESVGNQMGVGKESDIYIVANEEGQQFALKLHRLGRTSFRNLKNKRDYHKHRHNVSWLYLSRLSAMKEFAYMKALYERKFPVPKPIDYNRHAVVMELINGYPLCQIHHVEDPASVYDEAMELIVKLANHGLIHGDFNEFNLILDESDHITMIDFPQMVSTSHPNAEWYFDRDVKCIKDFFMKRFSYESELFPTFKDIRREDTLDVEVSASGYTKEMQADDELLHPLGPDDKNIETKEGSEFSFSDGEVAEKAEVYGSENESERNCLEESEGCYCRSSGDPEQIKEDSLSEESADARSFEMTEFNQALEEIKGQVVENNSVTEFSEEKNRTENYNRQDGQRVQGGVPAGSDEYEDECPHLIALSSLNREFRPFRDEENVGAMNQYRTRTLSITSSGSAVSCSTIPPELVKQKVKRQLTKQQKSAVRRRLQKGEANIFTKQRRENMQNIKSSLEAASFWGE

panel of 442 kinases [4] = biological target: T4, panel of 442 kinases (Homo sapiens, UniProt Q13153); settings: kinase PAK1; for remaining activity at 1 µM: read-out: % of control at 1 µM
T4 construct: purchased Ambit Biosciences (scanMAXX KINOMEscan)
T4 sequence (Q13153 whole entry): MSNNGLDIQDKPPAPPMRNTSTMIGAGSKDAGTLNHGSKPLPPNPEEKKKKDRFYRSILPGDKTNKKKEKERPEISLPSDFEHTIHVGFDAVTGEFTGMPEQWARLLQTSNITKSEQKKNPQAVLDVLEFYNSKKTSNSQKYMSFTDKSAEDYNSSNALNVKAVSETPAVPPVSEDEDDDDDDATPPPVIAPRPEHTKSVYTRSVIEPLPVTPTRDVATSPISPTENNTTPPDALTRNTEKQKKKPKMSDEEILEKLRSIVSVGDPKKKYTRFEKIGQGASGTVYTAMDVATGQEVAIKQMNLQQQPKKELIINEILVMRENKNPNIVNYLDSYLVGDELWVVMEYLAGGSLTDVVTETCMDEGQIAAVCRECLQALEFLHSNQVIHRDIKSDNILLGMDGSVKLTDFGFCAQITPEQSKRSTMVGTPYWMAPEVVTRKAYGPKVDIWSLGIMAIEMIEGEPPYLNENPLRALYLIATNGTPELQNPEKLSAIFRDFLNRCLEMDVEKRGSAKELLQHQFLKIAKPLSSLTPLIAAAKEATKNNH

panel of 442 kinases [5] = biological target: T5, panel of 442 kinases (Homo sapiens, UniProt O15111); settings: kinase IKK-alpha; for remaining activity at 1 µM: read-out: % of control at 1 µM
T5 construct: purchased Ambit Biosciences (scanMAXX KINOMEscan)
T5 sequence (O15111 1-745): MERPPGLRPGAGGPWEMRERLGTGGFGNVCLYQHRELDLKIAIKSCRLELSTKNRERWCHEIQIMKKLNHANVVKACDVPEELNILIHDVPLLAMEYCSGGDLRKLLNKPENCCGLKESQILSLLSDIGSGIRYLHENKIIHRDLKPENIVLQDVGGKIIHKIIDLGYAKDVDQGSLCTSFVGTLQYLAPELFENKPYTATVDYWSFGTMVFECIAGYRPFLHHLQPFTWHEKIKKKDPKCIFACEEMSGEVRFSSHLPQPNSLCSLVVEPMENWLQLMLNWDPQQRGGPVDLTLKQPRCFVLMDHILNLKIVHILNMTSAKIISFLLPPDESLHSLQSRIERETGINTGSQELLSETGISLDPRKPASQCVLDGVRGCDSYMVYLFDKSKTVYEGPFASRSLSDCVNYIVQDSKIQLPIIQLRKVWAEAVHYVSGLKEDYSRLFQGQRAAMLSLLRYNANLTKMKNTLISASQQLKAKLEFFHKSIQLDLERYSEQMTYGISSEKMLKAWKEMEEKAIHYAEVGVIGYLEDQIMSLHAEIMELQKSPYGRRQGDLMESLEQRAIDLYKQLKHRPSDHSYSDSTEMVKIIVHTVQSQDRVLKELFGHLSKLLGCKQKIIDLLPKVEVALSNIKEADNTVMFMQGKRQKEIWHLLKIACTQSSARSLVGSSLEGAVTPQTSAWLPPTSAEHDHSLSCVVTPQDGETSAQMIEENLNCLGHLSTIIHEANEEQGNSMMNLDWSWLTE

panel of 442 kinases [6] = biological target: T6, panel of 442 kinases (Homo sapiens, UniProt Q15139); settings: kinase PRKD1; for remaining activity at 1 µM: read-out: PRKD1 (% of control at 1 µM)
T6 construct: purchased Ambit Biosciences (scanMAXX KINOMEscan)
T6 sequence (Q15139 1-912): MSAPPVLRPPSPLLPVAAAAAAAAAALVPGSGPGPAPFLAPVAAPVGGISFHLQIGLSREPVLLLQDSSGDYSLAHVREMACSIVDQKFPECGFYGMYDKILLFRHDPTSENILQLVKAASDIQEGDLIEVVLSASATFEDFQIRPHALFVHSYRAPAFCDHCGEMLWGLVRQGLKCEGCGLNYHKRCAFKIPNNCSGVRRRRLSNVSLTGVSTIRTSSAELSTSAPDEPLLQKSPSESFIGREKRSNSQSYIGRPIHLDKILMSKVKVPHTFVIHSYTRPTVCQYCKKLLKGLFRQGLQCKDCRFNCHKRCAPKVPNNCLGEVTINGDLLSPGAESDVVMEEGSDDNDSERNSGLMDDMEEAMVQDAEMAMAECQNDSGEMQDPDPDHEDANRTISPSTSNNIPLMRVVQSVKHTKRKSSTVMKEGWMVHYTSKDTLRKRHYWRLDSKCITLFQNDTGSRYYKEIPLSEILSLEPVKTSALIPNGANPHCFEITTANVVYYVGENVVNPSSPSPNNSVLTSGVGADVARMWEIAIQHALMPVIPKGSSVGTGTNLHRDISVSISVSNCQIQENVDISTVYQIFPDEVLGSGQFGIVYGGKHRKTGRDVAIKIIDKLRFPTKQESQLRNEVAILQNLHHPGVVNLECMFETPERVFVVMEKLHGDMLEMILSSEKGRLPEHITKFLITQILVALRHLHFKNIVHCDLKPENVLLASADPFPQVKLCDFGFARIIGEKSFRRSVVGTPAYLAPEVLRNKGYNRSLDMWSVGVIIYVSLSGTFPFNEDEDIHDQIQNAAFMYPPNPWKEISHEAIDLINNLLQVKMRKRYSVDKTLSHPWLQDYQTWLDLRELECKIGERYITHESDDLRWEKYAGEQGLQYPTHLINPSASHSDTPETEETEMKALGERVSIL

[7] = 10 µM, read-out: % of control at 10 µM

Nc1cc(C(F)(F)F)c(-c2cc(N3CCOCC3)nc(N3CCOCC3)n2)cn1 [Buparlisib]
remaining activity at 1 µM (panel of 442 kinases [1]): 92% | remaining activity at 10 µM (panel of 442 kinases [1]; [7]): 100% | remaining activity at 1 µM (panel of 442 kinases [2]): 84% | remaining activity at 10 µM (panel of 442 kinases [2]; [7]): 100% | remaining activity at 1 µM (panel of 442 kinases [3]): 100% | remaining activity at 10 µM (panel of 442 kinases [3]; 10 µM, read-out: RIOK2 (% of control at 10 µM)): 100% | remaining activity at 1 µM (panel of 442 kinases [4]): 100% | remaining activity at 10 µM (panel of 442 kinases [4]; [7]): 96% | remaining activity at 1 µM (panel of 442 kinases [5]): 59% | remaining activity at 10 µM (panel of 442 kinases [5]; [7]): 59% | remaining activity at 1 µM (panel of 442 kinases [6]): 100% | remaining activity at 10 µM (panel of 442 kinases [6]; 10 µM, read-out: PRKD1 (% of control at 10 µM)): 100%

Cn1c(=O)n(-c2ccc(C(C)(C)C#N)cc2)c2c3cc(-c4cnc5ccccc5c4)ccc3ncc21 [Dactolisib, 2-methyl-2-[4-(3-methyl-2-oxo-8-quinolin-3-yl-2,3-dihydroimidazo[4,5-c]quinolin-1-yl)-phenyl] propionitrile]
remaining activity at 1 µM (panel of 442 kinases [1]): 73% | remaining activity at 1 µM (panel of 442 kinases [2]): 100% | remaining activity at 1 µM (panel of 442 kinases [3]): 65% | remaining activity at 1 µM (panel of 442 kinases [4]): 100% | remaining activity at 1 µM (panel of 442 kinases [5]): 63% | remaining activity at 1 µM (panel of 442 kinases [6]): 100%

COc1ncc(-c2ccc3nccc(-c4ccnnc4)c3c2)cc1NS(=O)(=O)c1ccc(F)cc1F [Omipalisib]
remaining activity at 1 µM (panel of 442 kinases [1]): 100% | remaining activity at 1 µM (panel of 442 kinases [2]): 100% | remaining activity at 1 µM (panel of 442 kinases [3]): 100% | remaining activity at 1 µM (panel of 442 kinases [4]): 55% | remaining activity at 1 µM (panel of 442 kinases [5]): 100% | remaining activity at 1 µM (panel of 442 kinases [6]): 100%

FC(F)c1nc2ccccc2n1-c1nc(N2CCOCC2)nc(N2CCOCC2)n1 [ZSTK474, 2-(difluoromethyl)-1-[4,6-di(4-morpholinyl)-1,3,5-triazin-2-yl]-1H-benzimidazole]
remaining activity at 1 µM (panel of 442 kinases [1]): 88% | remaining activity at 1 µM (panel of 442 kinases [2]): 100% | remaining activity at 1 µM (panel of 442 kinases [3]): 39% | remaining activity at 1 µM (panel of 442 kinases [4]): 100% | remaining activity at 1 µM (panel of 442 kinases [5]): 73% | remaining activity at 1 µM (panel of 442 kinases [6]): 100%
